Assay results taken from patent US20070149580A1, “USE OF PEROXISOME PROLIFERATOR ACTIVATED RECEPTOR DELTA AGONISTS FOR THE TREATMENT OF MS AND OTHER DEMYELINATING DISEASES” (AVENTIS PHARMACEUTICALS INC., priority 2004, published 2007).

System: cultured rat oligodendrocytes
Assay: Quantitative PCR of MBP mRNA in cultured rat oligodendrocytes
Assay type: cell-based
Settings: FIGS. 2 and 3
Excerpt: • 1. Primary rat oligodendrocyte progenitor cells are obtained from the neocortex of newborn (postnatal days 2-3) rats or mice and are enriched, after removal of microglia, by mechanical separation from the astrocytic monolayer using a modification of the technique originally described by McCarthy and de Vellis (1980). • 2. Remove the meninges from neonatal rat brain and mechanically dissociate tissue. Plate cells on T75 flasks and feed cells with DMEM/F12+10% FBS. • 3. Collect oligodendrocytes growing on the astrocyte bed layer by shaking-off method fourteen days after the original prep date. Centrifuge the suspension and resuspend the cell pellet in serum free media (SFM; DMEM combined with 25 μg/ml transferring, 30 nM triiodothyronine, 20 nM hydrocortisone, 20 nM progesterone, 10 nM biotin, 1× trace elements, 30 nM selenium, 1 μg/ml putrescine, 0.1% BSA, 5 U/ml PenStrep, 10 μg/ml insulin) supplemented with the following growth factors: Platelet derived growth factor-AA (PDGF) and fibroblast growth factor-2 (FGF). • 4. Plate the cells on PDL-coated dishes and incubate at 37° C. with 6-7% CO2. • 5. Media components are replaced every 48 hr to keep the cells in a progenitor state. Progenitor Cell Passaging to Increase Cell Numbers for Screening Assays: • 1. […]
• 1. […] PPAR delta pathway member transcript expression is quantitated using Sybr Green PCR Master Mix. • 4. […]

Row | SMILES | MBP mRNA
1 | Cc1cc(SCc2sc(-c3ccc(C(F)(F)F)cc3)nc2C)ccc1OCC(=O)O [Compound 1] | enhancement
2 | CCCc1c(OCCCOc2ccc(OCC(=O)O)cc2)ccc(C(C)=O)c1O [Compound 2] | enhancement
